Source: PMC11872117, “Inhibitory effects of Kratom constituents, mitragynine and 7-hydroxymitragynine, on 4-methylumbelliferone glucuronidation by human UDP-glucuronosyltransferases” (Toxicology Reports, 2025)

Experiments:
Type in all cases: biochemical
UGT1A3 [1] = biological target: T1, UGT1A3 (Homo sapiens, UniProt P35503); assay: 4MU glucuronidation, HPLC of 4MUG
T1 construct: Supersome recombinant human enzyme (Corning), microsomal preparation
T1 sequence (P35503 29-534): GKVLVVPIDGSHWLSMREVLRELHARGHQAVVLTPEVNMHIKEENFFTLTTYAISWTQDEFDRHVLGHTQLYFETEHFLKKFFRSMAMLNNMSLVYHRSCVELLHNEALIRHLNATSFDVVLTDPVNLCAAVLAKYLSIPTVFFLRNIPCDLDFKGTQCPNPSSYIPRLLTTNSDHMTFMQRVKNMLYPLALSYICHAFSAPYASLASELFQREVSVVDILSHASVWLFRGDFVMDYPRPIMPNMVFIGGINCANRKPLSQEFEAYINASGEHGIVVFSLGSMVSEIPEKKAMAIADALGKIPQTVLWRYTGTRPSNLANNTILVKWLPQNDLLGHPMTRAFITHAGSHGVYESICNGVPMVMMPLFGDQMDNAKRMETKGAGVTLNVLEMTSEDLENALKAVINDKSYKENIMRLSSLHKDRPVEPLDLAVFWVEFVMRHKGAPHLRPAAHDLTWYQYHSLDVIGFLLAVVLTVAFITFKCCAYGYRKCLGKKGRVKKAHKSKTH
From the text: 4MU glucuronidation, HPLC of 4MUG on UGT1A3

UGT2B15 = biological target: T2, UGT2B15 (Homo sapiens, UniProt P54855); assay: 4MU glucuronidation, HPLC of 4MUG
T2 construct: Supersome recombinant human enzyme (Corning), microsomal preparation
T2 sequence (P54855 24-530): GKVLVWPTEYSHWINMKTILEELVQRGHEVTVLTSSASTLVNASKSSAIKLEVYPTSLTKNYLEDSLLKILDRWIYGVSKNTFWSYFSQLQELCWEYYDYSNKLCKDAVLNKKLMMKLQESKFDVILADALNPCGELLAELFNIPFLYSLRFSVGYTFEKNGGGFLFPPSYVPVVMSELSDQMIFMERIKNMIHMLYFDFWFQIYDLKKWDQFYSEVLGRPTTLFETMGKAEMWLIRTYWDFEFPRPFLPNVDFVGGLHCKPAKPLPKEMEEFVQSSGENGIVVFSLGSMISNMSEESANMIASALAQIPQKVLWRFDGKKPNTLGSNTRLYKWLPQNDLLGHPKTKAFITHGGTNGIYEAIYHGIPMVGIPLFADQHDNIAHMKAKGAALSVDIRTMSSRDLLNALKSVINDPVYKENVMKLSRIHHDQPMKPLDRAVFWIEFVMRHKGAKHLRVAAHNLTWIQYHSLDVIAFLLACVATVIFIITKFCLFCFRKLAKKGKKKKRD
From the text: 4MU glucuronidation, HPLC of 4MUG on UGT2B15

UGT1A9 [2] = biological target: T3, UGT1A9 (Homo sapiens, UniProt O60656); assay: 4MU glucuronidation, HPLC of 4MUG
T3 construct: Supersome recombinant human enzyme (Corning), microsomal preparation
T3 sequence (O60656 26-530): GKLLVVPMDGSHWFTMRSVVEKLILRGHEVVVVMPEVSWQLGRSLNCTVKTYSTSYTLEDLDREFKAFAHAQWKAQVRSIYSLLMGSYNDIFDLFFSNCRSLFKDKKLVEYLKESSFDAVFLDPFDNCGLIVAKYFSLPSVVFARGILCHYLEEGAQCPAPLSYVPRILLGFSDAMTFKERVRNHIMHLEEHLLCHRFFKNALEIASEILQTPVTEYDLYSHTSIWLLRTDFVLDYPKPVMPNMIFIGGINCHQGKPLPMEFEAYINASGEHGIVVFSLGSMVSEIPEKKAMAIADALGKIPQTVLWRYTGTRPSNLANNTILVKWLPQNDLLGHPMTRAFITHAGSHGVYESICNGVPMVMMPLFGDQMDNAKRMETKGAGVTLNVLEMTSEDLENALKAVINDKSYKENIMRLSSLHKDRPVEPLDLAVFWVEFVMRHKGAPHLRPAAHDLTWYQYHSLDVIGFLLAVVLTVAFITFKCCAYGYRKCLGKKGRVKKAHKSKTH
From the text: 4MU glucuronidation, HPLC of 4MUG on UGT1A9

UGT1A3 [3] = biological target: T1, UGT1A3; assay: 4MU glucuronidation, HPLC of 4MUG, Dixon plot
From the text: 4MU glucuronidation, HPLC of 4MUG, Dixon plot on UGT1A3

UGT1A1 = biological target: T4, UGT1A1 (Homo sapiens, UniProt P22309); assay: 4MU glucuronidation, HPLC of 4MUG
T4 construct: Supersome recombinant human enzyme (Corning), microsomal preparation
T4 sequence (P22309 26-533): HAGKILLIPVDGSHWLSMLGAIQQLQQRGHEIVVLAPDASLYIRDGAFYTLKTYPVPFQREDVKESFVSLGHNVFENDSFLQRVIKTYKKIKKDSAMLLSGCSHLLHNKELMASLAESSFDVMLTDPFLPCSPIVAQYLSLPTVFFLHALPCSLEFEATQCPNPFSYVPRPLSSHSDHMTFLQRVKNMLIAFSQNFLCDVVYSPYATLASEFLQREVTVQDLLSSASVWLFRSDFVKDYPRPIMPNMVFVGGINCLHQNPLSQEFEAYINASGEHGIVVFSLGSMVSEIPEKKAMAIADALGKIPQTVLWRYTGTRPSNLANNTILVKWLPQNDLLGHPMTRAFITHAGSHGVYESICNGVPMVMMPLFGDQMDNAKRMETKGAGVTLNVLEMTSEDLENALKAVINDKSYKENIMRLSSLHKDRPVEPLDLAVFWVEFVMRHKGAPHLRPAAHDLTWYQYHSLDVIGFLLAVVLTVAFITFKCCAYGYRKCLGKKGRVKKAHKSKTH
From the text: 4MU glucuronidation, HPLC of 4MUG on UGT1A1

UGT1A6 = biological target: T5, UGT1A6 (Homo sapiens, UniProt P19224); assay: 4MU glucuronidation, HPLC of 4MUG
T5 construct: Supersome recombinant human enzyme (Corning), microsomal preparation
T5 sequence (P19224 27-532): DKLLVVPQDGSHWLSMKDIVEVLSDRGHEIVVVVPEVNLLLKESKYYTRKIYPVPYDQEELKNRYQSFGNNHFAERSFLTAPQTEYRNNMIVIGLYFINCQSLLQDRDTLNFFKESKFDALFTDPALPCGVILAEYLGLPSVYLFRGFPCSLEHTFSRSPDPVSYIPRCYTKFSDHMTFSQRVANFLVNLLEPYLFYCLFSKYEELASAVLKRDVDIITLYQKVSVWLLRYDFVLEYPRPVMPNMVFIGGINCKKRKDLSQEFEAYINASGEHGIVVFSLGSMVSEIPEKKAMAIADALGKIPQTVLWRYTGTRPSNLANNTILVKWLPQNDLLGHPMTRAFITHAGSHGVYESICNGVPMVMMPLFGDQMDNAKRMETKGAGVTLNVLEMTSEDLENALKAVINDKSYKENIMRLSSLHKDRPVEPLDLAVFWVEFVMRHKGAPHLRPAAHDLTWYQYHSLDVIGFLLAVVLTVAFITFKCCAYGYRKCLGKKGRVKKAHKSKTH
From the text: 4MU glucuronidation, HPLC of 4MUG on UGT1A6

UGT2B7 = biological target: T6, UGT2B7 (Homo sapiens, UniProt P16662); assay: 4MU glucuronidation, HPLC of 4MUG
T6 construct: Supersome recombinant human enzyme (Corning), microsomal preparation
T6 sequence (P16662 24-529): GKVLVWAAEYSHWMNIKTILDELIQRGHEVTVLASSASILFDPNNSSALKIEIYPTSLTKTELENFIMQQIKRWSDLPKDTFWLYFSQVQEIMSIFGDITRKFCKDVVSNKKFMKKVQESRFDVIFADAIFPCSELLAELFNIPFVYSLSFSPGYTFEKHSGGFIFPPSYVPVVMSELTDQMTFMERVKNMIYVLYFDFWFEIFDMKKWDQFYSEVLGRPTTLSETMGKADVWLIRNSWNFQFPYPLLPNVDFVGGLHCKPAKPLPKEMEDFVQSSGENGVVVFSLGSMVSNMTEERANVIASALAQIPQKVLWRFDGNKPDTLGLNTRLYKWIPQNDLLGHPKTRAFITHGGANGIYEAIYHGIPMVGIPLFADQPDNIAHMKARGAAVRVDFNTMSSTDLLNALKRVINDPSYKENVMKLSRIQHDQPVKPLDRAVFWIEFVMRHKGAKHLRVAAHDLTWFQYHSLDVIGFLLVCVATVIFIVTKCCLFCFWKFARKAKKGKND
From the text: 4MU glucuronidation, HPLC of 4MUG on UGT2B7

UGT1A9 [4] = biological target: T3, UGT1A9; assay: 4MU glucuronidation, HPLC of 4MUG, Dixon plot
From the text: 4MU glucuronidation, HPLC of 4MUG, Dixon plot on UGT1A9

With `CC[C@@H]1CN2CCc3c([nH]c4cccc(OC)c34)[C@@H]2C[C@@H]1/C(=C\OC)C(=O)OC` [mitragynine] as the molecule, how does the IC50 (UGT1A3 [1]) read?
The IC50 was 72 ± 0.16 µM.

What about the IC50 (UGT2B15) of the same molecule?
Its IC50 is 152 ± 24 µM.

What about the IC50 (UGT1A9 [2]) of the same molecule?
The IC50 was 131 ± 11 µM.

And the Ki (UGT1A3 [3])?
Its Ki is 45 ± 1.3 µM.

What about the IC50 (UGT1A1) of the same molecule?
The IC50 was greater than 200 µM.

What about the IC50 (UGT1A6) of the same molecule?
Its IC50 is 121 ± 44 µM.

What about the IC50 (UGT2B7) of the same molecule?
The IC50 was greater than 200 µM.

What about the Ki (UGT1A9 [4]) of the same molecule?
Its Ki is 114 ± 13 µM.
